Experimental findings from patent publication US20250145589A1, “PYRIDINE DERIVATIVE AND USE THEREOF” (SICHUAN HUIYU PHARMACEUTICAL CO., LTD., priority 2021, published 2025) are described below.

Like-named read-outs stand apart in the source and are kept apart here.

Test [1] concerns MIA PaCa-2-AMGR drug-resistant cell line. In words: MIA PaCa-2-AMGR drug-resistant cell proliferation inhibitory activity test. The format is cell-based. Conditions: 72 h, MIA PaCa-2-AMGR drug-resistant cells, 3 days incubation, CellTiter-Glo. A digest of the protocol:
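MIA PaCa-2 line made resistant by stepwise AMG510 exposure up to 1 μM. Cells seeded at 4×10^3/well overnight, then treated with 8 concentrations (5-fold dilutions) for 3 days at 37° C, 5% CO2 in DMEM with 10% FBS + 2.5% horse serum. Viability by CellTiter-Glo luminescence; IC50 versus no-inhibitor control.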
A general note: ATP-based viability assays read luminescence as a measure of living cells.

A further test addresses PI3Kα (Homo sapiens (Human), UniProt P42336). In words: Inhibition of PI3Kα efficacy assay (ADP-Glo kinase assay). The format is biochemical. The following applies: read-out: PI3Kα inhibitory activity (IC50). A digest of the protocol: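 ADP-Glo luminescent detection of ADP from PI3Kα acting on PI substrate with ATP, 60 min at RT; compounds in 8-point five-fold serial dilution from 2 mM DMSO stock. IC50 from four-parameter variable-slope fit.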
In general terms: ADP-Glo first removes unused ATP, then detects ADP through luciferase.

The next test addresses KRAS^G12C-SOS1 (Homo sapiens (Human), UniProt P01116, G12C). In words: HTRF KRAS G12C/SOS1 binding assay. The following applies: Table 5. A digest of the protocol: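 Compound was serially diluted five-fold over eight points, with a 2 mM DMSO stock. After anti-tag-Tb3+ and anti-tag-XL665 were added, plates were incubated 3 h at 4 °C and read by HTRF (ex 337 nm, em 620/665 nm ratio). IC50 values come from four-parameter variable-slope fits.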

The next test concerns the target PI3Kδ (Homo sapiens (Human), UniProt O00329). In words: Inhibition of PI3Kδ efficacy assay (ADP-Glo kinase assay). The format is biochemical. Conditions: read-out: PI3Kδ inhibitory activity (IC50). A digest of the protocol: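 Luminescent ADP-Glo readout of PI3Kδ: after a 60 min RT reaction with PI/ATP substrate, ATP depletion (40 min) and ADP detection (40 min) steps followed. Compounds tested as eight five-fold serial dilutions; inhibition rates fitted to log(inhibitor) vs. response, variable slope, for IC50.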

Test [2] deals with MIA PaCa-2 cells (KRAS G12C mutant). Briefly: MIA PaCa-2 cell anti-proliferation (CellTiter-Glo). The class given is cell-based. Conditions: Homo sapiens, 72 h; MIA Paca-2 cells, 3 days, Table 7; read-out: MIA PaCa-2 (IC50). A digest of the protocol:
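Viable-cell luminescence (CellTiter-Glo, ≥30 min at 25 °C) measured after a 3-day, 37 °C exposure to compounds at 9 points, 4-fold spaced, in DMEM containing 10% FBS plus 2.5% horse serum. IC50 derived versus no-inhibitor wells.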

Chain of PI3Kα (P42336 whole entry): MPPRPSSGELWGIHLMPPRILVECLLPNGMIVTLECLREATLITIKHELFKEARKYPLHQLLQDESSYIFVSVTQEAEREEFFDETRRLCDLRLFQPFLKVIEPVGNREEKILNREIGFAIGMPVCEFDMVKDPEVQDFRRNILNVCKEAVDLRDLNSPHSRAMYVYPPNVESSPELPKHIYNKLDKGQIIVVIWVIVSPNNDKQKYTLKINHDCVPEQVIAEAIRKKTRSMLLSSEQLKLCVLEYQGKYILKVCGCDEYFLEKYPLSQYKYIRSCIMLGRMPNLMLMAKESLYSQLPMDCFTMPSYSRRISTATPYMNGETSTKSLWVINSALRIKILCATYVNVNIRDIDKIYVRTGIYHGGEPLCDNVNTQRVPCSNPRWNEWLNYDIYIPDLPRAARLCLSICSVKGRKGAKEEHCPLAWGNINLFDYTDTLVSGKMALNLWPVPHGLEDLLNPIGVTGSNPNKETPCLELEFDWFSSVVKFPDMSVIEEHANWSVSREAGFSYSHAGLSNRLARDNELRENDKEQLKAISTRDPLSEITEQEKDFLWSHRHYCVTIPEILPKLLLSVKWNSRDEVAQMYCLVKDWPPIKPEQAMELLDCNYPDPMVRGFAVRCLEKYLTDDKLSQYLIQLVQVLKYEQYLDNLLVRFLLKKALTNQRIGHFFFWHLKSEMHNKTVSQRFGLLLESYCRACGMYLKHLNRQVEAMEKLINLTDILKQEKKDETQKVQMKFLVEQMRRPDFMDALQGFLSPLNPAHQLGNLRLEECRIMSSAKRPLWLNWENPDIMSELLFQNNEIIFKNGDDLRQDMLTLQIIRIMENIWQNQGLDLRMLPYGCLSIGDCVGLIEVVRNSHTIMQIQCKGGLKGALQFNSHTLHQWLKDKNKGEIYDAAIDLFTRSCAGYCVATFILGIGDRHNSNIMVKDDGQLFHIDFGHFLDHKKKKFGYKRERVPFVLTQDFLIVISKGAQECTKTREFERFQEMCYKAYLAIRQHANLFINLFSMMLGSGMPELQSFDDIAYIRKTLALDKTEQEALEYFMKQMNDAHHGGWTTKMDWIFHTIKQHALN
Chain of PI3Kα (P27986 whole entry partner): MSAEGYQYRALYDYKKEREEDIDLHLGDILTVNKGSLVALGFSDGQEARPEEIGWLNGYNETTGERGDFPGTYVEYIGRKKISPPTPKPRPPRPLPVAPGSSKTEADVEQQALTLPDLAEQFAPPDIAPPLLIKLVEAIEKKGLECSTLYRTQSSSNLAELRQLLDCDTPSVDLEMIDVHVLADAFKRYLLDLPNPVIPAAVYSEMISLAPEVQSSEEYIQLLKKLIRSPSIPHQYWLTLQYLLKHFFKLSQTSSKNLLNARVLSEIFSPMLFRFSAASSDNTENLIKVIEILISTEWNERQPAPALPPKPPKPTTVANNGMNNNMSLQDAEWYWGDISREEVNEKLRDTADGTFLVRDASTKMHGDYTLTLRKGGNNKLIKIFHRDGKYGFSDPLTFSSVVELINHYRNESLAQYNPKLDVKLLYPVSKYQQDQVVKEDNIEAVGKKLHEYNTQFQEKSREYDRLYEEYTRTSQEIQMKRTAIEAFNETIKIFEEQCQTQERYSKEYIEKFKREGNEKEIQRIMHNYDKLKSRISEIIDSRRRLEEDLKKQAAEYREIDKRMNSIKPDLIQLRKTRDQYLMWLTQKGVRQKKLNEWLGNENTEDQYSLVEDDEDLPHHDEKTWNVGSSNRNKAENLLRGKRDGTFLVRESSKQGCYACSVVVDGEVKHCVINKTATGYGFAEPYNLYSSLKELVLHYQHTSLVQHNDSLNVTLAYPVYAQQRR
Chain of PI3Kδ (O00329 whole entry): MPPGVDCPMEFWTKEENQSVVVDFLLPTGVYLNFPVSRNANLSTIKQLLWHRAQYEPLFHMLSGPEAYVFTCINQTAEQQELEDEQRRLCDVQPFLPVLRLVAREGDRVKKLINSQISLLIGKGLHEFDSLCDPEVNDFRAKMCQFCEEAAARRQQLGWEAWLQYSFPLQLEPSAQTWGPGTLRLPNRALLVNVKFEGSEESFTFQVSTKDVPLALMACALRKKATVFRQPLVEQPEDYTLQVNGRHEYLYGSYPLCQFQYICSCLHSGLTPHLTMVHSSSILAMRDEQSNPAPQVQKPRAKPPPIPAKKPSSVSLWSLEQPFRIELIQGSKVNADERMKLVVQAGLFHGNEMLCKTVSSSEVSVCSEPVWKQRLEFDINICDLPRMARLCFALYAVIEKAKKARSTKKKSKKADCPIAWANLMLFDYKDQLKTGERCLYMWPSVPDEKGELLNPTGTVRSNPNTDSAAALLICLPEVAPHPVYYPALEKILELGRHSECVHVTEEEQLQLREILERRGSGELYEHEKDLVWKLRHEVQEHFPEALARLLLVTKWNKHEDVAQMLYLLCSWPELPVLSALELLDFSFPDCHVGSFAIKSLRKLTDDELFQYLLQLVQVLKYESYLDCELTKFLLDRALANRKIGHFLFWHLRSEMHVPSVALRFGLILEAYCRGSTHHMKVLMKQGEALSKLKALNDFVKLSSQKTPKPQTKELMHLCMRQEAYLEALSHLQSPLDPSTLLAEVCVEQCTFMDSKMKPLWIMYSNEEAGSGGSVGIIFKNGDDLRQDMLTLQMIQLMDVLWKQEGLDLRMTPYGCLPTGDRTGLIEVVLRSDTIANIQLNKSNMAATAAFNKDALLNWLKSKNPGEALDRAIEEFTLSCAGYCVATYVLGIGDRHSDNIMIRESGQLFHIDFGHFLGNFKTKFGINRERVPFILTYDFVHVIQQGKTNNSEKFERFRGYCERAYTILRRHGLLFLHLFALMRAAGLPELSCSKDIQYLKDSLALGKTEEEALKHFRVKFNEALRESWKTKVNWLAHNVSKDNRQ
Chain of PI3Kδ (P27986 whole entry partner): as the sequence (P27986 whole entry partner) above
Chain of KRAS^G12C-SOS1 (P01116-2 other isoform, or with tags, fused parts or gaps G12C): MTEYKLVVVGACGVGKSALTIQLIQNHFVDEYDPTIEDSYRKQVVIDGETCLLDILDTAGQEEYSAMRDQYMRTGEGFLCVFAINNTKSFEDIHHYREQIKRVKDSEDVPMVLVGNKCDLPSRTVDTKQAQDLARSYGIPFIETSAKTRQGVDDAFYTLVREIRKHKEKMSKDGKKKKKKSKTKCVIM

In the case of `CCCC(=O)/C=C/C(=O)N1CCN(c2ncnc3ccc(-c4cnc(OC)c(NS(=O)(=O)c5ccc(F)cc5F)c4)cc23)CC1` [Example 17, (E)-2,4-difluoro-N-(2-methoxy-5-(4-(4-(4-oxohept-2-enoyl)piperazin-1-yl)quinazolin-6-yl)pyridin-3-yl)benzenesulfonamide], the IC50 (usually the concentration needed to halve the response being measured) in test [1] came out at 106 nM; at PI3Kα (Table 1) it was 2.3 nM; on KRAS^G12C-SOS1 it was 313 nM; on PI3Kδ (Table 1), 31 nM; in test [2] it was 87.9 nM.

With `COc1ncc(-c2ccc3ncnc(N4CCC5(CC4)CN(C(=O)/C=C/C(C)=O)C5)c3c2)cc1NS(=O)(=O)c1ccc(F)cc1Cl` [Example 171, (E)-2-chloro-4-fluoro-N-(2-methoxy-5-(4-(2-(4-oxopent-2-enoyl)-2,7-diazaspiro[3.5]nonan-7-yl)quinazolin-6-yl)pyridin-3-yl)benzene-sulfonamide], the IC50 in test [1] stood at 32.9 nM; at PI3Kα (Table 4), 12.9 nM; at KRAS^G12C-SOS1, 441 nM; on PI3Kδ (Table 4) it was 40.1 nM; in test [2] it was 12.6 nM.

For the molecule `COc1ncc(-c2ccc3ncnc(N4CCC5(CC4)CN(C(=O)/C=C/C(C)=O)C5)c3c2)cc1NS(=O)(=O)c1c(F)cc(F)cc1F` [Example 101, (E)-2,4,6-trifluoro-N-(2-methoxy-5-(4-(2-(4-oxopent-2-enoyl)-2,7-diazaspiro[3.5]nonan-7-yl)quinazolin-6-yl)pyridin-3-yl)benzenesulfonamide], the IC50 in test [1] is 35.9 nM; at PI3Kα (Table 2) it was 9.9 nM; on KRAS^G12C-SOS1 it was 198 nM; at PI3Kδ (Table 2), 33.6 nM; in test [2], 11.6 nM.

In the case of `COc1ncc(-c2ccc3ncnc(N4CC5CCC4CN5C(=O)/C=C/C(C)=O)c3c2)cc1NS(=O)(=O)c1ccc(F)cc1F` (centres unmarked) [Example 158, (E)-2,4-difluoro-N-(2-methoxy-5-(4-(5-(4-oxopent-2-enoyl)-2,5-diazabicyclo[2.2.2]octan-2-yl)quinazolin-6-yl)pyridin-3-yl)benzenesulfonamide], the IC50 stood at 136 nM in test [1]; 3 nM at PI3Kα (Table 4); 191 nM at KRAS^G12C-SOS1; 34.6 nM at PI3Kδ (Table 4); 140 nM in test [2].

`COc1ncc(-c2ccc3ncnc(N4CCC5(CC4)CN(C(=O)/C=C/C(C)=O)C5)c3c2)cc1NS(=O)(=O)c1ccccc1F` [Example 150, (E)-2-fluoro-N-(2-methoxy-5-(4-(2-(4-oxopent-2-enoyl)-2,7-diazaspiro[3.5]nonan-7-yl)quinazolin-6-yl)pyridin-3-yl)benzenesulfonamide]: the IC50 in test [1] amounted to 55.1 nM; at PI3Kα (Table 4), 0.11 nM; on KRAS^G12C-SOS1, 236 nM; on PI3Kδ (Table 4), 10.7 nM; in test [2], 58.5 nM.

For `COc1ncc(-c2ccc3ncnc(N4CCC5(CC4)CN(C(=O)/C=C/C(C)=O)C5)c3c2)cc1NS(=O)(=O)c1c(F)cccc1F` [Example 49, (E)-2,6-difluoro-N-(2-methoxy-5-(4-(2-(4-oxopent-2-enoyl)-2,7-diazaspiro[3.5]nonan-7-yl)quinazolin-6-yl)pyridin-3-yl) benzenesulfonamide], the IC50 was determined as 62.4 nM in test [1]; 2.6 nM at PI3Kα (Table 2); 225 nM on KRAS^G12C-SOS1; 14.9 nM at PI3Kδ (Table 2); 110 nM in test [2].

As for `COc1ncc(-c2ccc3ncnc(N4CCN(C(=O)/C=C/C(C)=O)CC4)c3c2)cc1NS(=O)(=O)c1ccc(F)cc1Cl` [Example 169, (E)-2-chloro-4-fluoro-N-(2-methoxy-5-(4-(4-(4-oxopent-2-enoyl)piperazin-1-yl)quinazolin-6-yl)pyridin-3-yl)benzenesulfonamide], the IC50 in test [1] is 54.4 nM; at PI3Kα (Table 4), 3.8 nM; at KRAS^G12C-SOS1, 249 nM; on PI3Kδ (Table 4), 18.9 nM; in test [2], 31.7 nM.

As for `COc1ncc(-c2ccc3ncnc(N4CCN(C(=O)/C=C/C(C)=O)CC4)c3c2)cc1NS(=O)(=O)c1ncc(Cl)s1` [Example 165, (E)-5-chloro-N-(2-methoxy-5-(4-(4-(4-oxopent-2-enoyl)piperazin-1-yl)quinazolin-6-yl)pyridin-3-yl)thiazole-2-sulfonamide], the IC50 in test [1] worked out at 173 nM; on PI3Kα (Table 4) it was 1.2 nM; on KRAS^G12C-SOS1, 362 nM; on PI3Kδ (Table 4), 12 nM; in test [2], 250 nM.

As for `COc1ncc(-c2ccc3ncnc(C4=CCN(C(=O)/C=C/C(C)=O)CC4)c3c2)cc1NS(=O)(=O)c1c(F)cccc1F` [Example 201, (E)-2,6-difluoro-N-(2-methoxy-5-(4-(1-(4-oxopent-2-enoyl)-1,2,3,6-tetrahydropyridin-4-yl)quinazolin-6-yl)pyridin-3-yl)benzenesulfonamide], the half-maximal inhibitory concentration (IC50) in test [1] is 11.1 nM; on PI3Kα (Table 4), 3.8 nM; at KRAS^G12C-SOS1, 140 nM; at PI3Kδ (Table 4), 11.8 nM; in test [2], 31.9 nM.

Regarding `COc1ncc(-c2ccc3ncnc(C4CCN(C(=O)/C=C/C(C)=O)CC4)c3c2)cc1NS(=O)(=O)c1sc(C)nc1C` [Example 203, (E)-N-(2-methoxy-5-(4-(1-(4-oxopent-2-enoyl)piperidin-4-yl)quinazolin-6-yl)pyridin-3-yl)-2,4-dimethylthiazole-5-sulfonamide], the IC50 in test [1] was determined as 16.7 nM; at PI3Kα (Table 4), 2.4 nM; on KRAS^G12C-SOS1 it was 419 nM; at PI3Kδ (Table 4), 10.4 nM; in test [2] it was 51.4 nM.

Take `COc1ncc(-c2ccc3ncnc(N4CC5CCC(C4)N5C(=O)/C=C/C(C)=O)c3c2)cc1NS(=O)(=O)c1ccc(F)cc1Cl` [Example 175, 2-chloro-4-fluoro-N-(2-methoxy-5-(4-(8-((E)-4-oxopent-2-enoyl)-3,8-diazabicyclo [3.2.1]octan-3-yl)quinazolin-6-yl)pyridin-3-yl)benzene-sulfonamide]: the IC50 in test [1] was determined as 36.7 nM; on PI3Kα (Table 4), 6 nM; on KRAS^G12C-SOS1, 288 nM; on PI3Kδ (Table 4) it was 16.2 nM; in test [2], 22.8 nM.

`COc1ncc(-c2ccc3ncnc(N4CCN(C(=O)/C=C/C(C)=O)[C@@H](CC#N)C4)c3c2)cc1NS(=O)(=O)c1c(F)cccc1F` [Example 116, (S,E)-N-(5-(4-(3-(cyanomethyl)-4-(4-oxopent-2-enoyl)piperazin-1-yl)quinazolin-6-yl)-2-methoxypyridin-3-yl)-2,6-difluorobenzenesulfonamide]: the IC50 in test [1] was found to be 462 nM; on PI3Kα (Table 2), 1.8 nM; on KRAS^G12C-SOS1 it was 1570 nM; on PI3Kδ (Table 2), 27 nM; in test [2] it was 107 nM.

As for `COc1ncc(-c2ccc3ncnc(C4=CCN(C(=O)/C=C/C(C)=O)CC4)c3c2)cc1NS(=O)(=O)c1c(F)cccc1Cl` [Example 202, (E)-2-chloro-6-fluoro-N-(2-methoxy-5-(4-(1-(4-oxopent-2-enoyl)-1,2,3,6-tetrahydropyridin-4-yl)quinazolin-6-yl)pyridin-3-yl)benzene-sulfonamide], the IC50 was 13 nM in test [1]; 1.9 nM on PI3Kα (Table 4); 142 nM at KRAS^G12C-SOS1; 27.9 nM on PI3Kδ (Table 4); 11.6 nM in test [2].

`COc1ncc(-c2ccc3ncnc(C4CCN(C(=O)/C=C/C(C)=O)CC4)c3n2)cc1NS(=O)(=O)c1sc(C)nc1C` [Example 230, (E)-N-(2-methoxy-5-(4-(1-(4-oxopent-2-enoyl)piperidin-4-yl)pyrido[3,2-d]pyrimidin-6-yl)pyridin-3-yl)-2,4-dimethylthiazol-5-sulfonamide]: the IC50 is 35.3 nM in test [1]; 2.6 nM at PI3Kα (Table 4); 493 nM at KRAS^G12C-SOS1; 4.7 nM on PI3Kδ (Table 4); 24.2 nM in test [2].

In the case of `CCOc1ncc(-c2ccc3ncnc(N4CCN(C(=O)/C=C/C(C)=O)CC4)c3c2)cc1NS(=O)(=O)c1ccc(F)cc1F` [Example 109, (E)-N-(2-ethoxy-5-(4-(4-(4-oxopent-2-enoyl)piperazin-1-yl)quinazolin-6-yl)pyridin-3-yl)-2,4-difluorobenzenesulfonamide], the IC50 in test [1] is 111 nM; at PI3Kα (Table 2), 3.5 nM; on KRAS^G12C-SOS1, 499 nM; at PI3Kδ (Table 2), 48.9 nM; in test [2] it was 94.2 nM.

As to `COc1ncc(-c2ccc3ncnc(N4CCC5(CC4)CN(C(=O)/C=C/C(C)=O)C5)c3c2)cc1NS(=O)(=O)c1ccc(F)cc1` [Example 161, (E)-4-fluoro-N-(2-methoxy-5-(4-(2-(4-oxopent-2-enoyl)-2,7-diazaspiro[3.5]nonan-7-yl)quinazolin-6-yl)pyridin-3-yl)benzenesulfonamide], the IC50 in test [1] worked out at 55.3 nM; at PI3Kα (Table 4), 0.82 nM; on KRAS^G12C-SOS1 it was 284 nM; on PI3Kδ (Table 4), 9.9 nM; in test [2], 67.8 nM.
